# Measured values as given in the supplement of paper PMC10307832.
# Key:
# Assay in all cases: relative viability (nuclei count vs DMSO), 5 days (fraction); higher = more cells survive
# NCI-H1666 = tested on: NCI-H1666
# Method in brief: (§1)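 For relative viability, nuclei counts in treated wells were divided by those in vehicle wells. Lung cancer cell lines had been pin-tool dosed in 1536-well plates the day after seeding and cultured for 5 days, then fixed and stained in one step (final 0.05% Triton X-100, 1% formaldehyde, 1 ug/ml Hoechst) and imaged at 4×. Doses were one drug alone or a fixed anchor-drug dose plus five library-drug doses (not always all listed) in √10 steps, and values are duplicate-plate medians.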
# PC-14 = tested on: PC-14
# Method in brief: as §1
# NCI-H2087 = tested on: NCI-H2087
# Method in brief: as §1
# LC-2-ad = tested on: LC-2-ad
# Method in brief: as §1
# HCC-78 = tested on: HCC-78
# Method in brief: as §1
# NCI-H2405 = tested on: NCI-H2405
# Method in brief: as §1
# COR-L 105 = tested on: COR-L 105
# Method in brief: as §1
# EPLC-272H = tested on: EPLC-272H
# Method in brief: as §1
# NCI-H23 = tested on: NCI-H23
# Method in brief: as §1
# RERF-LC-KJ = tested on: RERF-LC-KJ
# Method in brief: as §1
# NCI-H1915 = tested on: NCI-H1915
# Method in brief: as §1
# 201T = tested on: 201T
# Method in brief: as §1
# NCI-H2126 = tested on: NCI-H2126
# Method in brief: as §1
# NCI-H2347 = tested on: NCI-H2347
# Method in brief: as §1
# H3255 = tested on: H3255
# Method in brief: as §1
# NCI-H520 = tested on: NCI-H520
# Method in brief: as §1
# NCI-H650 = tested on: NCI-H650
# Method in brief: as §1
# NCI-H661 = tested on: NCI-H661
# Method in brief: as §1
# ChaGo-K-1 = tested on: ChaGo-K-1
# Method in brief: as §1
# NCI-H647 = tested on: NCI-H647
# Method in brief: as §1
# LCLC-97TM1 = tested on: LCLC-97TM1
# Method in brief: as §1
# HCC-827 = tested on: HCC-827
# Method in brief: as §1
smiles,measurement,setting,value
COc1cc2nccc(Oc3ccc(NC(=O)Nc4cc(C)on4)c(Cl)c3)c2cc1OC [Tivozanib] + Cc1nc(Nc2ncc(C(=O)Nc3c(C)cccc3Cl)s2)cc(N2CCN(CCO)CC2)n1 [Dasatinib] (partner 0.075 µM),relative viability,NCI-H1666; first compound 0.005 µM,0.785
same,relative viability,NCI-H1666; first compound 0.01581 µM,0.831
same,relative viability,NCI-H1666; first compound 0.05 µM,0.801
same,relative viability,NCI-H1666; first compound 0.1581 µM,0.819
same,relative viability,NCI-H1666; first compound 0.5 µM,0.825
same,relative viability,PC-14; first compound 0.005 µM,0.224
same,relative viability,PC-14; first compound 0.01581 µM,0.25
same,relative viability,PC-14; first compound 0.05 µM,0.255
same,relative viability,PC-14; first compound 0.1581 µM,0.316
same,relative viability,PC-14; first compound 0.5 µM,0.239
same,relative viability,NCI-H2087; first compound 0.005 µM,0.6
same,relative viability,NCI-H2087; first compound 0.01581 µM,0.742
same,relative viability,NCI-H2087; first compound 0.05 µM,0.794
same,relative viability,NCI-H2087; first compound 0.1581 µM,0.911
same,relative viability,NCI-H2087; first compound 0.5 µM,0.772
same,relative viability,LC-2-ad; first compound 0.005 µM,0.458
same,relative viability,LC-2-ad; first compound 0.01581 µM,0.504
same,relative viability,LC-2-ad; first compound 0.05 µM,0.615
same,relative viability,LC-2-ad; first compound 0.1581 µM,0.268
same,relative viability,LC-2-ad; first compound 0.5 µM,0.208
same,relative viability,HCC-78; first compound 0.005 µM,0.365
same,relative viability,HCC-78; first compound 0.01581 µM,0.387
same,relative viability,HCC-78; first compound 0.05 µM,0.466
same,relative viability,HCC-78; first compound 0.1581 µM,0.263
same,relative viability,HCC-78; first compound 0.5 µM,0.362
same,relative viability,NCI-H2405; first compound 0.005 µM,0.216
same,relative viability,NCI-H2405; first compound 0.01581 µM,0.242
same,relative viability,NCI-H2405; first compound 0.05 µM,0.202
same,relative viability,NCI-H2405; first compound 0.1581 µM,0.266
same,relative viability,NCI-H2405; first compound 0.5 µM,0.19
same,relative viability,COR-L 105; first compound 0.005 µM,0.34
same,relative viability,COR-L 105; first compound 0.01581 µM,0.361
same,relative viability,COR-L 105; first compound 0.05 µM,0.467
same,relative viability,COR-L 105; first compound 0.1581 µM,0.269
same,relative viability,COR-L 105; first compound 0.5 µM,0.354
same,relative viability,EPLC-272H; first compound 0.005 µM,0.378
same,relative viability,EPLC-272H; first compound 0.01581 µM,0.375
same,relative viability,EPLC-272H; first compound 0.05 µM,0.447
same,relative viability,EPLC-272H; first compound 0.1581 µM,0.263
same,relative viability,EPLC-272H; first compound 0.5 µM,0.413
same,relative viability,NCI-H23; first compound 0.005 µM,0.693
same,relative viability,NCI-H23; first compound 0.01581 µM,0.707
same,relative viability,NCI-H23; first compound 0.05 µM,0.769
same,relative viability,NCI-H23; first compound 0.1581 µM,0.389
same,relative viability,NCI-H23; first compound 0.5 µM,0.753
same,relative viability,RERF-LC-KJ; first compound 0.005 µM,0.799
same,relative viability,RERF-LC-KJ; first compound 0.01581 µM,0.887
same,relative viability,RERF-LC-KJ; first compound 0.05 µM,0.788
same,relative viability,RERF-LC-KJ; first compound 0.1581 µM,0.856
same,relative viability,RERF-LC-KJ; first compound 0.5 µM,0.583
same,relative viability,NCI-H1915; first compound 0.005 µM,0.279
same,relative viability,NCI-H1915; first compound 0.01581 µM,0.3
same,relative viability,NCI-H1915; first compound 0.05 µM,0.3
same,relative viability,NCI-H1915; first compound 0.1581 µM,0.289
same,relative viability,NCI-H1915; first compound 0.5 µM,0.272
same,relative viability,201T; first compound 0.005 µM,0.536
same,relative viability,201T; first compound 0.01581 µM,0.566
same,relative viability,201T; first compound 0.05 µM,0.6
same,relative viability,201T; first compound 0.1581 µM,0.57
same,relative viability,201T; first compound 0.5 µM,0.553
same,relative viability,NCI-H2126; first compound 0.005 µM,0.499
same,relative viability,NCI-H2126; first compound 0.01581 µM,0.567
same,relative viability,NCI-H2126; first compound 0.05 µM,0.636
same,relative viability,NCI-H2126; first compound 0.1581 µM,0.412
same,relative viability,NCI-H2126; first compound 0.5 µM,0.494
same,relative viability,NCI-H2347; first compound 0.01581 µM,0.308
same,relative viability,NCI-H2347; first compound 0.05 µM,0.294
same,relative viability,NCI-H2347; first compound 0.5 µM,0.281
same,relative viability,H3255; first compound 0.005 µM,0.316
same,relative viability,H3255; first compound 0.01581 µM,0.432
same,relative viability,H3255; first compound 0.05 µM,0.347
same,relative viability,H3255; first compound 0.1581 µM,0.345
same,relative viability,H3255; first compound 0.5 µM,0.326
same,relative viability,NCI-H520; first compound 0.005 µM,0.183
same,relative viability,NCI-H520; first compound 0.01581 µM,0.201
same,relative viability,NCI-H520; first compound 0.05 µM,0.232
same,relative viability,NCI-H520; first compound 0.1581 µM,0.175
same,relative viability,NCI-H520; first compound 0.5 µM,0.182
same,relative viability,NCI-H650; first compound 0.005 µM,0.344
same,relative viability,NCI-H650; first compound 0.01581 µM,0.509
same,relative viability,NCI-H650; first compound 0.05 µM,0.447
same,relative viability,NCI-H650; first compound 0.1581 µM,0.368
same,relative viability,NCI-H650; first compound 0.5 µM,0.387
same,relative viability,NCI-H661; first compound 0.005 µM,0.851
same,relative viability,NCI-H661; first compound 0.01581 µM,0.909
same,relative viability,NCI-H661; first compound 0.05 µM,0.95
same,relative viability,NCI-H661; first compound 0.1581 µM,0.834
same,relative viability,NCI-H661; first compound 0.5 µM,0.796
same,relative viability,ChaGo-K-1; first compound 0.005 µM,0.543
same,relative viability,ChaGo-K-1; first compound 0.01581 µM,0.61
same,relative viability,ChaGo-K-1; first compound 0.05 µM,0.626
same,relative viability,ChaGo-K-1; first compound 0.1581 µM,0.602
same,relative viability,ChaGo-K-1; first compound 0.5 µM,0.581
same,relative viability,NCI-H647; first compound 0.005 µM,0.152
same,relative viability,NCI-H647; first compound 0.01581 µM,0.227
same,relative viability,NCI-H647; first compound 0.05 µM,0.189
same,relative viability,NCI-H647; first compound 0.1581 µM,0.193
same,relative viability,NCI-H647; first compound 0.5 µM,0.15
same,relative viability,LCLC-97TM1; first compound 0.005 µM,0.941
same,relative viability,LCLC-97TM1; first compound 0.01581 µM,0.855
same,relative viability,LCLC-97TM1; first compound 0.05 µM,0.923
same,relative viability,LCLC-97TM1; first compound 0.1581 µM,0.921
same,relative viability,LCLC-97TM1; first compound 0.5 µM,0.836
same,relative viability,HCC-827; first compound 0.005 µM,0.288
same,relative viability,HCC-827; first compound 0.01581 µM,0.36
same,relative viability,HCC-827; first compound 0.05 µM,0.317
same,relative viability,HCC-827; first compound 0.1581 µM,0.338
same,relative viability,HCC-827; first compound 0.5 µM,0.231
